# Experimental data from patent US20260191968A1, “PROTAC DEGRADERS OF MLLT1 AND/OR MLLT3” (DARK BLUE THERAPEUTICS LTD, priority 2024, published 2026).
# Molecular target: T1, MLLT1 (Homo sapiens, UniProt Q03111)
# T1 construct: host or cells: MV4-11
# T1 sequence (Q03111 1-559): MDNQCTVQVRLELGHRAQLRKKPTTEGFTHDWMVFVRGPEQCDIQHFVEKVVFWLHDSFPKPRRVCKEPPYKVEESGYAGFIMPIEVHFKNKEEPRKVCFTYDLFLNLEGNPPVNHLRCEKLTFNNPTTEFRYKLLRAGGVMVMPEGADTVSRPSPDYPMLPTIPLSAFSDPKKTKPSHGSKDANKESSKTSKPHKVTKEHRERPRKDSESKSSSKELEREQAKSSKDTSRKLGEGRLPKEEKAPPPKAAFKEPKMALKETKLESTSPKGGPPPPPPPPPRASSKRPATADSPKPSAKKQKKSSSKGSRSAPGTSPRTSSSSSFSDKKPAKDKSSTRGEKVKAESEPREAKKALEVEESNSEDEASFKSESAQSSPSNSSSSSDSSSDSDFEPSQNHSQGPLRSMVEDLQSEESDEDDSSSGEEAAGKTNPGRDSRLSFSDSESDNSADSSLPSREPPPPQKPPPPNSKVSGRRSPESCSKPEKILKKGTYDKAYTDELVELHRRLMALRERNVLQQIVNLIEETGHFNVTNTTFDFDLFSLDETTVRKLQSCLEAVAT
# Assay: MLLT1 degradation assay in MV4-11 cells (JESS chemiluminescent detection), three concentrations, 24 h
# Type: cell-based
# Conditions: with respect to DMSO control
# Method: MLLT1 degradation efficacy of compounds were tested in an automated chemiluminescent detection system (JESS, Cat #004-650). […] 10 mM DMSO stocks were prepared, and cells were treated with three concentrations of test compounds viz. 1000, 100 and 10 nM at a final DMSO concentration of 0.1% and incubated for 24 h at 37° C., 5% CO2. […] Post run, data were analysed using “Compass for SW” software for chemiluminescent detection. The peak area for each band was used for the calculation of MLLT1 degradation with respect to DMSO control. Data is shown as “MLLT1% degradation”.
SMILES,MLLT1% Degradation @ 0.01 μM,MLLT1% Degradation @ 0.1 μM,MLLT1% Degradation @ 1 μM
"CN1CCC[C@@H]1c1cc2cnc(NC(=O)c3cccc(OCCCCCCCC#Cc4cccc5c4C(=O)N(C4CCC(=O)NC4=O)C5=O)c3)cc2[nH]1 (stereo partly drawn) [Example 26, 3-((9-(2-(2,6-dioxopiperidin-3-yl)-1,3-dioxoisoindolin-4-yl)non-8-yn-1-yl)oxy)-N-(2-((R)-1-methylpyrrolidin-2-yl)-1H-pyrrolo[3,2-c]pyridin-6-yl)benzamide]",D (Category D: D < 25% degradation),D (Category D: D < 25% degradation),C (Category C: 25% ≤ C < 50% degradation)
"CN1CCC[C@@H]1c1cc2cnc(NC(=O)CCCCCCNc3ccc4c(c3)C(=O)N(C3CCC(=O)NC3=O)C4=O)cc2[nH]1 (stereo partly drawn) [Example 27, 7-{[2-(2,6-dioxopiperidin-3-yl)-1,3-dioxoisoindol-5-yl]amino}-N-{2-[(2R)-1-methylpyrrolidin-2-yl]-1H-pyrrolo[3,2-c]pyridin-6-yl}heptanamide]",C (Category C: 25% ≤ C < 50% degradation),C (Category C: 25% ≤ C < 50% degradation),B (Category B: 50% ≤ B < 75% degradation)
"CN1CCC[C@@H]1c1cc2cnc(NC(=O)CCCCCCCCNc3cccc4c3C(=O)N(C3CCC(=O)NC3=O)C4=O)cc2[nH]1 (stereo partly drawn) [Example 30, 9-{[2-(2,6-dioxopiperidin-3-yl)-1,3-dioxoisoindol-4-yl]amino}-N-{2-[(2R)-1-methylpyrrolidin-2-yl]-1H-pyrrolo[3,2-c]pyridin-6-yl}nonanamide]",C (Category C: 25% ≤ C < 50% degradation),B (Category B: 50% ≤ B < 75% degradation),A (Category A: A ≥ 75% degradation)
"CN1CCC[C@@H]1c1cc2cnc(NC(=O)c3cnn(CCCC4CCN(c5cccc6c5C(=O)N(C5CCC(=O)NC5=O)C6=O)CC4)c3)cc2[nH]1 (stereo partly drawn) [Example 38, 1-(3-{1-[2-(2,6-dioxopiperidin-3-yl)-1,3-dioxoisoindol-4-yl]piperidin-4-yl}propyl)-N-{2-[(2R)-1-methylpyrrolidin-2-yl]-1H-pyrrolo[3,2-c]pyridin-6-yl}pyrazole-4-carboxamide]",D (Category D: D < 25% degradation),D (Category D: D < 25% degradation),C (Category C: 25% ≤ C < 50% degradation)
"CN1CCC[C@@H]1c1cc2cnc(NC(=O)CCCC3CCCN(c4cccc5c4C(=O)N(C4CCC(=O)NC4=O)C5=O)C3)cc2[nH]1 (stereo partly drawn) [Example 44, 4-(1-(2-(2,6-dioxopiperidin-3-yl)-1,3-dioxoisoindolin-4-yl)piperidin-3-yl)-N-(2-((R)-1-methylpyrrolidin-2-yl)-1H-pyrrolo[3,2-c]pyridin-6-yl)butanamide]",,C (Category C: 25% ≤ C < 50% degradation),C (Category C: 25% ≤ C < 50% degradation)
"CN1CCC[C@@H]1c1cc2cnc(NC(=O)c3cccc(NCC4CCN(c5cccc6c5C(=O)N(C5CCC(=O)NC5=O)C6=O)CC4)c3)cc2[nH]1 (stereo partly drawn) [Example 46, 3-(((1-(2-(2,6-dioxopiperidin-3-yl)-1,3-dioxoisoindolin-4-yl)piperidin-4-yl)methyl)amino)-N-(2-((R)-1-methylpyrrolidin-2-yl)-1H-pyrrolo[3,2-c]pyridin-6-yl)benzamide]",,B (Category B: 50% ≤ B < 75% degradation),B (Category B: 50% ≤ B < 75% degradation)
"CN1CCC[C@@H]1c1cc2cnc(NC(=O)c3ccc(CCC#Cc4cccc5c4CN(C4CCC(=O)NC4=O)C5=O)cn3)cc2[nH]1 (stereo partly drawn) [Example 49, 5-(4-(2-(2,6-dioxopiperidin-3-yl)-1-oxoisoindolin-4-yl)but-3-yn-1-yl)-N-(2-((R)-1-methylpyrrolidin-2-yl)-1H-pyrrolo[3,2-c]pyridin-6-yl)picolinamide]",D (Category D: D < 25% degradation),D (Category D: D < 25% degradation),C (Category C: 25% ≤ C < 50% degradation)
"CN1CCCC1c1cc2cnc(NC(=O)c3ccc(OCC#Cc4cccc5c4CN(C4CCC(=O)NC4=O)C5=O)cn3)cc2[nH]1 (stereo not shown) [Example 50, 5-[3-[2-(2,6-dioxo-3-piperidyl)-1-oxo-isoindolin-4-yl]prop-2-ynoxy]-N-[2-(1-methylpyrrolidin-2-yl)-1H-pyrrolo[3,2-c]pyridin-6-yl]pyridine-2-carboxamide]",B (Category B: 50% ≤ B < 75% degradation),B (Category B: 50% ≤ B < 75% degradation),B (Category B: 50% ≤ B < 75% degradation)
"CN1CCC[C@@H]1c1cc2cnc(NC(=O)c3ccc(-c4cnn(CCCC#Cc5cccc(C(=O)N[C@H]6CCC(=O)NC6=O)n5)c4)cc3)cc2[nH]1 [Example 62, N—((S)-2,6-dioxopiperidin-3-yl)-6-(5-(4-(4-((2-((R)-1-methylpyrrolidin-2-yl)-1H-pyrrolo[3,2-c]pyridin-6-yl)carbamoyl)phenyl)-1H-pyrazol-1-yl)pent-1-yn-1-yl) picolinamide]",B (Category B: 50% ≤ B < 75% degradation),A (Category A: A ≥ 75% degradation),B (Category B: 50% ≤ B < 75% degradation)
"CN1CCC[C@@H]1c1cc2cnc(NC(=O)c3ccc(CCCC#Cc4cccc(N5CCC(=O)NC5=O)n4)cc3)cc2[nH]1 [Example 63, (R)-4-(5-(6-(2,4-dioxotetrahydropyrimidin-1(2H)-yl)pyridin-2-yl)pent-4-yn-1-yl)-N-(2-(1-methylpyrrolidin-2-yl)-1H-pyrrolo[3,2-c]pyridin-6-yl)benzamide]",D (Category D: D < 25% degradation),D (Category D: D < 25% degradation),C (Category C: 25% ≤ C < 50% degradation)
"CN1CCC[C@@H]1c1cc2cnc(NC(=O)c3ccc(N4CCC(N5CCN(c6cccc7c6C(=O)N(C6CCC(=O)NC6=O)C7=O)CC5)CC4)nc3)cc2[nH]1 (stereo partly drawn) [Example 64, 6-(4-(4-(2-(2,6-dioxopiperidin-3-yl)-1,3-dioxoisoindolin-4-yl)piperazin-1-yl)piperidin-1-yl)-N-(2-((R)-1-methylpyrrolidin-2-yl)-1H-pyrrolo[3,2-c]pyridin-6-yl)nicotinamide]",B (Category B: 50% ≤ B < 75% degradation),B (Category B: 50% ≤ B < 75% degradation),A (Category A: A ≥ 75% degradation)
"Cc1ncsc1-c1ccc(CNC(=O)[C@@H]2C[C@@H](O)CN2C(=O)[C@@H](NC(=O)CCCCCCCCCCNC(=O)c2ccc(C(=O)Nc3cc4[nH]c([C@H]5CCCN5C)cc4cn3)cc2)C(C)(C)C)cc1 [Example 69, (2S,4R)-1-[(2S)-3,3-dimethyl-2-(11-{[4-({2-[(2R)-1-methylpyrrolidin-2-yl]-1H-pyrrolo[3,2-c]pyridin-6-yl}carbamoyl)phenyl]formamido}undecanamido)butanoyl]-4-hydroxy-N-{[4-(4-methyl-1,3-thiazol-5-yl)phenyl]methyl}pyrrolidine-2-carboxamide]",C (Category C: 25% ≤ C < 50% degradation),C (Category C: 25% ≤ C < 50% degradation),C (Category C: 25% ≤ C < 50% degradation)
"CN1CCC[C@@H]1c1[nH]c2cc(NC(=O)c3ccc(CCCCC#Cc4cccc5c4CN(C4CCC(=O)NC4=O)C5=O)nc3)ncc2c1Cl (stereo partly drawn) [Example 71, N-(3-chloro-2-((R)-1-methylpyrrolidin-2-yl)-1H-pyrrolo[3,2-c]pyridin-6-yl)-6-(6-(2-(2,6-dioxopiperidin-3-yl)-1-oxoisoindolin-4-yl)hex-5-yn-1-yl) nicotinamide]",A (Category A: A ≥ 75% degradation),A (Category A: A ≥ 75% degradation),B (Category B: 50% ≤ B < 75% degradation)
"CN1CCC[C@@H]1c1[nH]c2cc(NC(=O)c3ccc(N4CCN(CC#Cc5cccc6c5CN(C5CCC(=O)NC5=O)C6=O)CC4)nc3)ncc2c1Cl (stereo partly drawn) [Example 72, N-(3-chloro-2-((R)-1-methylpyrrolidin-2-yl)-1H-pyrrolo[3,2-c]pyridin-6-yl)-6-(4-(3-(2-(2,6-dioxopiperidin-3-yl)-1-oxoisoindolin-4-yl)prop-2-yn-1-yl)piperazin-1-yl)nicotinamide]",A (Category A: A ≥ 75% degradation),A (Category A: A ≥ 75% degradation),C (Category C: 25% ≤ C < 50% degradation)
"CCN1CCC[C@@H]1c1cc2cnc(NC(=O)c3ccc(N4CCC(CC#Cc5cccc6c5CN(C5CCC(=O)NC5=O)C6=O)CC4)nc3)cc2[nH]1 (stereo partly drawn) [Example 73, 6-(4-(3-(2-(2,6-dioxopiperidin-3-yl)-1-oxoisoindolin-4-yl)prop-2-yn-1-yl)piperidin-1-yl)-N-(2-((R)-1-ethylpyrrolidin-2-yl)-1H-pyrrolo[3,2-c]pyridin-6-yl)nicotinamide]",B (Category B: 50% ≤ B < 75% degradation),A (Category A: A ≥ 75% degradation),B (Category B: 50% ≤ B < 75% degradation)
